# Measurements reported in ChEMBL document CHEMBL1201862, “PubChem BioAssay data set” (2004).
#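 A five-concentration, 48-hour dose response in 96-well plates underlies each endpoint, interpolated linearly between surrounding concentrations. The concentration for 50% growth inhibition is given as GI50.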 Active and inactive are the calls of the source. Rule as the data show it: active = GI50 up to about 1.1 µM and inactive = higher.
# Key:
# Test in all cases: DTP human tumour cell line panel, 48 h
# 786-0 = system: 786-0
# A498 = system: A498
# A549 = system: A549
# ACHN = system: ACHN
# CCRF-CEM = system: CCRF-CEM
# COLO 205 = system: COLO 205
# DLD-1 = system: DLD-1
# DMS-114 = system: DMS-114
# DMS-273 = system: DMS-273
# EKVX = system: EKVX
# HCC 2998 = system: HCC 2998
# HCT-116 = system: HCT-116
# HCT-15 = system: HCT-15
# HOP-18 = system: HOP-18
# HOP-62 = system: HOP-62
# HOP-92 = system: HOP-92
# HT-29 = system: HT-29
# IGROV-1 = system: IGROV-1
# K562 = system: K562
# KM-20L2 = system: KM-20L2
# KM12 = system: KM12
# LOX IMVI = system: LOX IMVI
# LXFL 529 = system: LXFL 529
# M14 = system: M14
# M19-MEL = system: M19-MEL
# MOLT-4 = system: MOLT-4
# Malme-3M = system: Malme-3M
# NCI-H226 = system: NCI-H226
# NCI-H23 = system: NCI-H23
# NCI-H460 = system: NCI-H460
# NCI-H522 = system: NCI-H522
# OVCAR-3 = system: OVCAR-3
# OVCAR-4 = system: OVCAR-4
# OVCAR-5 = system: OVCAR-5
# OVCAR-8 = system: OVCAR-8
# RXF 393 = system: RXF 393
# SF-268 = system: SF-268
# SF-295 = system: SF-295
# SF-539 = system: SF-539
# SK-MEL-28 = system: SK-MEL-28
# SK-MEL-2 = system: SK-MEL-2
# SK-MEL-5 = system: SK-MEL-5
# SK-OV-3 = system: SK-OV-3
# SN12C = system: SN12C
# SNB-19 = system: SNB-19
# SNB-75 = system: SNB-75
# SNB-78 = system: SNB-78
# SW-620 = system: SW-620
# TK-10 = system: TK-10
# U-251 = system: U-251
# UACC-257 = system: UACC-257
# UACC-62 = system: UACC-62
# UO-31 = system: UO-31
# XF498 = system: XF498
# HL-60 = system: HL-60
# MCF7 = system: MCF7
# NCI/ADR-RES = system: NCI/ADR-RES
# RPMI-8226 = system: RPMI-8226
smiles,measurement,setting,value
COc1ccc2c(c1)[n+]([O-])c(C(=O)C/C(=N/NC(=O)c1ccccc1O)C(=O)Nc1ccc(Cl)c(C(F)(F)F)c1)c(C)[n+]2[O-],GI50,786-0,54.5 µM (inactive)
same,GI50,A498,53.8 µM (inactive)
same,GI50,A549,> 100 µM (inactive)
same,GI50,ACHN,68.9 µM (inactive)
same,GI50,CCRF-CEM,36.4 µM (inactive)
same,GI50,COLO 205,71 µM (inactive)
same,GI50,DLD-1,37.4 µM (inactive)
same,GI50,DMS-114,71.8 µM (inactive)
same,GI50,DMS-273,49.9 µM (inactive)
same,GI50,EKVX,48.9 µM (inactive)
same,GI50,HCC 2998,32.7 µM (inactive)
same,GI50,HCT-116,48.2 µM (inactive)
same,GI50,HCT-15,43.7 µM
same,GI50,HOP-18,32.6 µM (inactive)
same,GI50,HOP-62,37.8 µM (inactive)
same,GI50,HOP-92,> 100 µM (inactive)
same,GI50,HT-29,> 100 µM (inactive)
same,GI50,IGROV-1,44 µM (inactive)
same,GI50,K562,64.4 µM (inactive)
same,GI50,KM-20L2,> 100 µM (inactive)
same,GI50,KM12,89.1 µM (inactive)
same,GI50,LOX IMVI,79.8 µM (inactive)
same,GI50,LXFL 529,51.4 µM (inactive)
same,GI50,M14,51.4 µM (inactive)
same,GI50,M19-MEL,52.2 µM (inactive)
same,GI50,MOLT-4,37.3 µM (inactive)
same,GI50,Malme-3M,49.7 µM (inactive)
same,GI50,NCI-H226,> 100 µM (inactive)
same,GI50,NCI-H23,47.5 µM (inactive)
same,GI50,NCI-H460,46.5 µM (inactive)
same,GI50,NCI-H522,39.6 µM (inactive)
same,GI50,OVCAR-3,28.9 µM (inactive)
same,GI50,OVCAR-4,87.9 µM (inactive)
same,GI50,OVCAR-5,45.4 µM (inactive)
same,GI50,OVCAR-8,43.8 µM (inactive)
same,GI50,RXF 393,> 100 µM (inactive)
same,GI50,SF-268,54.8 µM (inactive)
same,GI50,SF-295,72.3 µM (inactive)
same,GI50,SF-539,> 100 µM (inactive)
same,GI50,SK-MEL-28,> 100 µM (inactive)
same,GI50,SK-MEL-2,> 100 µM (inactive)
same,GI50,SK-MEL-5,45.8 µM (inactive)
same,GI50,SK-OV-3,> 100 µM (inactive)
same,GI50,SN12C,47.2 µM (inactive)
same,GI50,SNB-19,> 100 µM (inactive)
same,GI50,SNB-75,66.5 µM (inactive)
same,GI50,SNB-78,> 100 µM (inactive)
same,GI50,SW-620,62.1 µM (inactive)
same,GI50,TK-10,50.5 µM (inactive)
same,GI50,U-251,> 100 µM (inactive)
same,GI50,UACC-257,91.6 µM (inactive)
same,GI50,UACC-62,> 100 µM (inactive)
same,GI50,UO-31,20.7 µM (inactive)
same,GI50,XF498,> 100 µM (inactive)
CCCCCOc1ccc(/C=N\c2ccc(CCc3ccc(/N=C/c4ccc(OCCCCC)cc4)cc3)cc2)cc1,GI50,A498,> 100 µM (inactive)
same,GI50,A549,> 100 µM (inactive)
same,GI50,CCRF-CEM,> 100 µM (inactive)
same,GI50,COLO 205,> 100 µM (inactive)
same,GI50,DLD-1,> 100 µM (inactive)
same,GI50,DMS-114,> 100 µM (inactive)
same,GI50,DMS-273,> 100 µM (inactive)
same,GI50,EKVX,> 100 µM (inactive)
same,GI50,HCC 2998,> 100 µM (inactive)
same,GI50,HCT-116,> 100 µM (inactive)
same,GI50,HCT-15,> 100 µM
same,GI50,HL-60,> 100 µM (inactive)
same,GI50,HOP-18,> 100 µM (inactive)
same,GI50,HOP-62,> 100 µM (inactive)
same,GI50,HOP-92,> 100 µM (inactive)
same,GI50,HT-29,> 100 µM (inactive)
same,GI50,IGROV-1,> 100 µM (inactive)
same,GI50,K562,> 100 µM (inactive)
same,GI50,KM-20L2,> 100 µM (inactive)
same,GI50,KM12,> 100 µM (inactive)
same,GI50,LOX IMVI,> 100 µM (inactive)
same,GI50,M19-MEL,> 100 µM (inactive)
same,GI50,MCF7,> 100 µM (inactive)
same,GI50,MOLT-4,> 100 µM (inactive)
same,GI50,Malme-3M,> 100 µM (inactive)
same,GI50,NCI-H226,> 100 µM (inactive)
same,GI50,NCI-H23,> 100 µM (inactive)
same,GI50,NCI-H460,> 100 µM (inactive)
same,GI50,NCI-H522,> 100 µM (inactive)
same,GI50,NCI/ADR-RES,> 100 µM (inactive)
same,GI50,OVCAR-3,> 100 µM (inactive)
same,GI50,OVCAR-4,> 100 µM (inactive)
same,GI50,OVCAR-5,> 100 µM (inactive)
same,GI50,OVCAR-8,> 100 µM (inactive)
same,GI50,RPMI-8226,> 100 µM (inactive)
same,GI50,RXF 393,> 100 µM (inactive)
same,GI50,SF-268,> 100 µM (inactive)
same,GI50,SF-295,> 100 µM (inactive)
same,GI50,SF-539,> 100 µM (inactive)
same,GI50,SK-MEL-28,> 100 µM (inactive)
same,GI50,SK-MEL-2,> 100 µM (inactive)
same,GI50,SK-MEL-5,> 100 µM (inactive)
same,GI50,SK-OV-3,> 100 µM (inactive)
same,GI50,SN12C,> 100 µM (inactive)
same,GI50,SNB-19,> 100 µM (inactive)
same,GI50,SNB-75,> 100 µM (inactive)
same,GI50,SNB-78,> 100 µM (inactive)
same,GI50,SW-620,> 100 µM (inactive)
same,GI50,U-251,> 100 µM (inactive)
same,GI50,UACC-257,> 100 µM (inactive)
same,GI50,UACC-62,> 100 µM (inactive)
same,GI50,UO-31,> 100 µM (inactive)
same,GI50,XF498,> 100 µM (inactive)
